Test results reported in ChEMBL document CHEMBL4616702 (ACS Med Chem Lett, 2020).

Assays:
[1] = AUC (0 to 24 hrs) in mouse at 4 mg/kg, po; assay type: ADME, organism-based; set-up: dose 4 mg/kg, time < 24 hr, route oral; settings: in vivo
[2] = Clearance in cynomolgus monkey at 1 mg/kg, iv; assay type: ADME, organism-based, Macaca fascicularis; settings: in vivo
[3] = AUC (0 to 24 hrs) in cynomolgus monkey at 1 mg/kg, po; assay type: ADME, organism-based, Macaca fascicularis; set-up: dose 1 mg/kg, time < 24 hr, route oral; settings: in vivo
[4] = Half life in human liver microsomes in presence of NADPH by LC/MS/MS method; assay type: ADME, Microsome
[5] = Half life in mouse liver microsomes in presence of NADPH by LC/MS/MS method; assay type: ADME, Microsome; settings: liver microsomes
Cytochrome P450 2C8 = biological target: T1, Cytochrome P450 2C8 (Homo sapiens, UniProt P10632); experiment: Inhibition of recombinant CYP2C8 (unknown origin); assay type: ADME
T1 sequence (P10632 whole entry): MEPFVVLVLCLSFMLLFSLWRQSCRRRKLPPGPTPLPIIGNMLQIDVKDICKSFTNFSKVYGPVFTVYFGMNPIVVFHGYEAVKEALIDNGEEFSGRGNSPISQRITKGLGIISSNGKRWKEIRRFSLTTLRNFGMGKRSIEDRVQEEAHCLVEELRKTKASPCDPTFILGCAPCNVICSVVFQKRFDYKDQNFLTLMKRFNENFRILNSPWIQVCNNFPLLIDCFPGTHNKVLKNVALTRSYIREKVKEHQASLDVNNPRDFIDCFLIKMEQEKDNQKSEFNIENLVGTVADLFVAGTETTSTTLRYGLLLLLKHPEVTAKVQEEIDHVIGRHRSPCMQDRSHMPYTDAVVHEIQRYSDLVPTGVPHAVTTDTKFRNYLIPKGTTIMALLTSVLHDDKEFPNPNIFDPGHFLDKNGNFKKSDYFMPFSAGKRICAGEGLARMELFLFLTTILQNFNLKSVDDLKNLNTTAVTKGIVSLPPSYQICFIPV

[6] = Half life in rat at 2 mg/kg, iv; assay type: ADME, organism-based; settings: in vivo
[7] = Drug concentration in Balb/c mouse at 10 mg/kg, po measured upto 24 hrs; assay type: ADME, organism-based; settings: in vivo, read-out: Drug uptake
Cytochrome P450 2D6 = Cytochrome P450 2D6 (Homo sapiens, UniProt P10635); experiment: Inhibition of recombinant CYP2D6 (unknown origin); assay type: ADME
Sequence of Cytochrome P450 2D6 (P10635 whole entry): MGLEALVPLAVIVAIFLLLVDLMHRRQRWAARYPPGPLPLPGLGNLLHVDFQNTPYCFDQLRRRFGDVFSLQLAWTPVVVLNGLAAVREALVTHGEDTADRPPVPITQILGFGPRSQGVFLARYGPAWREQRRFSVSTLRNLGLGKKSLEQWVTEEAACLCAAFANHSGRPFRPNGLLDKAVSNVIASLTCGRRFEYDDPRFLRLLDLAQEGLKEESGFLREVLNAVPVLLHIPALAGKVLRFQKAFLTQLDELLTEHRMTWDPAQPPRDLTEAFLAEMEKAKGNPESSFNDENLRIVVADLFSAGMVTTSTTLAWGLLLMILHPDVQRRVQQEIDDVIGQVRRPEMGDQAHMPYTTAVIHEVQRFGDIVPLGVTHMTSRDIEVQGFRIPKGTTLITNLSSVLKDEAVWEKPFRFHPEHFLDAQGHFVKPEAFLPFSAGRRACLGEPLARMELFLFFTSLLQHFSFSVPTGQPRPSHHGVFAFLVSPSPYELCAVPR

[8] = Cmax in cynomolgus monkey at 1 mg/kg, po; assay type: ADME, organism-based, Macaca fascicularis; set-up: dose 1 mg/kg, route oral; settings: in vivo
[9] = AUC (0 to 24 hrs) in Balb/c mouse at 10 mg/kg, po; assay type: ADME, organism-based; set-up: dose 10 mg/kg, time < 24 hr, route oral; settings: in vivo
[10] = Volume of distribution in steady state in rat at 2 mg/kg, iv; assay type: ADME, organism-based; settings: in vivo, read-out: Vdss
[11] = biological target: T2, Nuclear receptor ROR-alpha (Homo sapiens, UniProt P35398); experiment: Inverse agonist activity at Gal4-fused RORalpha (unknown origin)
T2 sequence (P35398 whole entry): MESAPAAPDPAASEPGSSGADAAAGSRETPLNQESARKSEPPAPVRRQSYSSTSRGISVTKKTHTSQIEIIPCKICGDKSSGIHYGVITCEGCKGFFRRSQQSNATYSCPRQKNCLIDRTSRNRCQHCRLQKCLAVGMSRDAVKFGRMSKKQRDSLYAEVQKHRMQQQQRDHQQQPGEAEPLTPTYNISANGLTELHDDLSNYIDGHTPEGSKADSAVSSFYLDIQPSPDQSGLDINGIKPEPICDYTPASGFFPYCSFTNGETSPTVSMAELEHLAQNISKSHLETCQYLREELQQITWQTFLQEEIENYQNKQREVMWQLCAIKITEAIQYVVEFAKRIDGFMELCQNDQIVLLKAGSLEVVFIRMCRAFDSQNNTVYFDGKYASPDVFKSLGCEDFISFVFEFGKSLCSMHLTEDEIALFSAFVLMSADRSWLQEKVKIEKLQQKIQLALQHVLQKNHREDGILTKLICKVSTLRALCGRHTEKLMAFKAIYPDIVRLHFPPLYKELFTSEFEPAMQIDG

[12] = Clearance in rat at 2 mg/kg, iv; assay type: ADME, organism-based; settings: in vivo
[13] = Volume of distribution in steady state in cynomolgus monkey at 1 mg/kg, iv; assay type: ADME, organism-based, Macaca fascicularis; settings: in vivo, read-out: Vdss
[14] = biological target: T3, Oxysterols receptor LXR-alpha (Homo sapiens, UniProt Q13133); experiment: Inverse agonist activity at LXRalpha (unknown origin)
T3 sequence (Q13133 whole entry): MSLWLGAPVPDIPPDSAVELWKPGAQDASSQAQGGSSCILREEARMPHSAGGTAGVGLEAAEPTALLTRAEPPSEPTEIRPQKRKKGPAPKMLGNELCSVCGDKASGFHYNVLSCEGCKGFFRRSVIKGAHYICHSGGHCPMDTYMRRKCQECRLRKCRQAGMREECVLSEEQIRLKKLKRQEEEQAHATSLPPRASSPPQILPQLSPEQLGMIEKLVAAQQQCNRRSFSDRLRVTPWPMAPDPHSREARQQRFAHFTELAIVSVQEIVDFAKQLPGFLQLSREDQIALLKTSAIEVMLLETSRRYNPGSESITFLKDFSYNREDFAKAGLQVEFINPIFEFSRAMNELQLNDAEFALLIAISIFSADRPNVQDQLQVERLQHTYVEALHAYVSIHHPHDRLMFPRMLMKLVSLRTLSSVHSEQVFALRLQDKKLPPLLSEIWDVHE

[15] = Fraction unbound in mouse plasma; assay type: ADME, cell-free
[16] = Fraction unbound in human plasma; assay type: ADME, cell-free
[17] = Half life in cynomolgus monkey at 1 mg/kg, iv; assay type: ADME, organism-based, Macaca fascicularis; settings: in vivo
[18] = Half life in mouse at 2 mg/kg, iv; assay type: ADME, organism-based; settings: in vivo
[19] = Cmax in rat at 4 mg/kg, po; assay type: ADME, organism-based; set-up: dose 4 mg/kg, route oral; settings: in vivo
[20] = Volume of distribution in steady state in mouse at 2 mg/kg, iv; assay type: ADME, organism-based; settings: in vivo, read-out: Vdss
[21] = AUC (0 to 24 hrs) in rat at 4 mg/kg, po; assay type: ADME, organism-based; set-up: time < 24 hr, dose 4 mg/kg, route oral; settings: in vivo
[22] = Clearance in dog at 1 mg/kg, iv; assay type: ADME, organism-based, Canis lupus familiaris; settings: in vivo
[23] = Cmax in dog at 1 mg/kg, po; assay type: ADME, organism-based, Canis lupus familiaris; set-up: dose 1 mg/kg, route oral; settings: in vivo
Cytochrome P450 2C19 = Cytochrome P450 2C19 (Homo sapiens, UniProt P33261); experiment: Inhibition of recombinant CYP2C19 (unknown origin); assay type: ADME
Sequence of Cytochrome P450 2C19 (P33261 whole entry): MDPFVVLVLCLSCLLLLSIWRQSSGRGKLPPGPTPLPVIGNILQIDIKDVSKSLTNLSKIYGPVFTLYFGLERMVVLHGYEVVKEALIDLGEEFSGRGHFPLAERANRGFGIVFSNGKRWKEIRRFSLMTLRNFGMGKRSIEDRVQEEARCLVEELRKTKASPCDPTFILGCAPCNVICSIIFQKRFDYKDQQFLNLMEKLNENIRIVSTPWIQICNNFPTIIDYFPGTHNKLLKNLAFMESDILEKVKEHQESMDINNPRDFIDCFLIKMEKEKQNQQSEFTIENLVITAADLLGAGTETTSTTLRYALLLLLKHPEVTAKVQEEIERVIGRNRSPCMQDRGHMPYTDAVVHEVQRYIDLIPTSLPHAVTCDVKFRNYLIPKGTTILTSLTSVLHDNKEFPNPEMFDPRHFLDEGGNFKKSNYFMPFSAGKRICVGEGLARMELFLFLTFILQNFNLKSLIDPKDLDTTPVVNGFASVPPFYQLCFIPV

Cytochrome P450 3A4 = Cytochrome P450 3A4 (Homo sapiens, UniProt P08684); experiment: Inhibition of recombinant CYP3A4 (unknown origin); assay type: ADME
Sequence of Cytochrome P450 3A4 (P08684 whole entry): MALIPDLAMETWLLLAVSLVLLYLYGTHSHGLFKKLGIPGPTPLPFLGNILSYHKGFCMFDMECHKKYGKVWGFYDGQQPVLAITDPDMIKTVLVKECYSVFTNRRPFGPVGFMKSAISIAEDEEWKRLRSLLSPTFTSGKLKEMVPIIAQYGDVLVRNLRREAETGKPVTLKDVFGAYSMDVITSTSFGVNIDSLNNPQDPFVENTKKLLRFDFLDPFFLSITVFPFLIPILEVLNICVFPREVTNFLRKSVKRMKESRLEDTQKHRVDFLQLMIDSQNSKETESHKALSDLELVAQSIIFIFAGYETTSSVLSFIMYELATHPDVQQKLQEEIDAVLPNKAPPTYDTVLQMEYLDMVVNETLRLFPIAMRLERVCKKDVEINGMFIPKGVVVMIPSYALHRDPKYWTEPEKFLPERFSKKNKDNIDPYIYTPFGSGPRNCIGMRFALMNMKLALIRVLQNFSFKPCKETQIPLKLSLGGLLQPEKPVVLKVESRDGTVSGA

[24] = Volume of distribution in steady state in dog at 1 mg/kg, iv; assay type: ADME, organism-based, Canis lupus familiaris; settings: in vivo, read-out: Vdss
[25] = Half life in dog at 1 mg/kg, iv; assay type: ADME, organism-based, Canis lupus familiaris; settings: in vivo
[26] = Oral bioavailability in mouse at 4 mg/kg; assay type: ADME, organism-based; settings: in vivo
Cytochrome P450 2C9 = Cytochrome P450 2C9 (Homo sapiens, UniProt P11712); experiment: Inhibition of recombinant CYP2C9 (unknown origin); assay type: ADME
Sequence of Cytochrome P450 2C9 (P11712 whole entry): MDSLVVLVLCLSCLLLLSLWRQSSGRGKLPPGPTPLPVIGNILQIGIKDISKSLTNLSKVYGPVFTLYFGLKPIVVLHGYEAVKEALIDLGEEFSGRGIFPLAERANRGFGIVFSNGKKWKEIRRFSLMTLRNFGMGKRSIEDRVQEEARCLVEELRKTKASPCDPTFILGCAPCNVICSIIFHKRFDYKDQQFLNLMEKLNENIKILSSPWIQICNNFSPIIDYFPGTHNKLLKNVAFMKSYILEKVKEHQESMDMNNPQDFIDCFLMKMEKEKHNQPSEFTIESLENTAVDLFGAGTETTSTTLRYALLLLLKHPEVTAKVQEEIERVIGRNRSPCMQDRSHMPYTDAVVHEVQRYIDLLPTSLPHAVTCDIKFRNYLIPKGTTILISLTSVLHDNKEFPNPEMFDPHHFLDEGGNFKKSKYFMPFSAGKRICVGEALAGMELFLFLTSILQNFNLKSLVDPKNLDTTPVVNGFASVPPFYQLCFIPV

[27] = Oral bioavailability in dog at 1 mg/kg; assay type: ADME, organism-based, Canis lupus familiaris; settings: in vivo
[28] = Half life in rat liver microsomes in presence of NADPH by LC/MS/MS metho; assay type: ADME, Microsome; settings: liver microsomes
[29] = Cmax in mouse at 4 mg/kg, po; assay type: ADME, organism-based; set-up: dose 4 mg/kg, route oral; settings: in vivo
[30] = Oral bioavailability in cynomolgus monkey at 1 mg/kg; assay type: ADME, organism-based, Macaca fascicularis; settings: in vivo
[31] = Clearance in mouse at 2 mg/kg, iv; assay type: ADME, organism-based; settings: in vivo

C[C@H]1C[C@H](C(=O)O)CC[C@H]1C(=O)N1CC[C@@]2(S(=O)(=O)c3ccc(F)cc3)c3ccc(C(F)(C(F)(F)F)C(F)(F)F)cc3CC[C@@H]12 [BMS-986251]
AUC(0-t) at 24 h [1]: 37 µM·h | clearance [2]: 1.1 mL/min/kg | AUC(0-t) at 24 h [3]: 35 µM·h | half-life [4]: > 2 h | half-life [5]: > 2 h | IC50 (Cytochrome P450 2C8): 16 µM | half-life [6]: 11 h | concentration at 24 h [7]: 0.52 µM | IC50 (Cytochrome P450 2D6): > 20 µM | Cmax [8]: 3.1 µM | AUC(0-t) at 24 h [9]: 68 µM·h | Vd [10]: 1.2 L/kg | EC50 [11]: > 10 µM | clearance [12]: 1.3 mL/min/kg | Vd [13]: 2 L/kg | EC50 [14]: > 7.5 µM | fraction unbound [15]: 0.016 | fraction unbound [16]: 0.012 | half-life [17]: 33 h | half-life [18]: 7.7 h | Cmax [19]: 4.7 µM | Vd [20]: 1.9 L/kg | AUC(0-t) at 24 h [21]: 64 µM·h | clearance [22]: 0.18 mL/min/kg | Cmax [23]: 6.4 µM | IC50 (Cytochrome P450 2C19): > 20 µM | IC50 (Cytochrome P450 3A4): > 20 µM | Vd [24]: 0.5 L/kg | half-life [25]: 36 h | bioavailability [26]: 100% | IC50 (Cytochrome P450 2C9): > 20 µM | bioavailability [27]: 100% | half-life [28]: > 2 h | Cmax [29]: 4.8 µM | bioavailability [30]: 100% | clearance [31]: 2.7 mL/min/kg
